Experimental data taken from paper PMC10970622, “Functional Characterization of Endo- and Exo-Hydrolase Genes in Arabinan Degradation Gene Cluster of Bifidobacterium longum subsp. suis” (International Journal of Molecular Sciences, 2024).

How the values were obtained:
BflsABN43B = molecular target: T1, BflsABN43B (Bifidobacterium longum, UniProt A0A087B7X0); assay: TLC of hydrolysis products; type: biochemical; settings: 0.5% substrate, optimal conditions (pH 6.0, 50 °C)
T1 construct: gene BLSS_1420; full length, 581 aa, 65 kDa, C-terminal His6, E. coli BL21(DE3); starts MTATTS by primer
T1 sequence (A0A087B7X0 1-581): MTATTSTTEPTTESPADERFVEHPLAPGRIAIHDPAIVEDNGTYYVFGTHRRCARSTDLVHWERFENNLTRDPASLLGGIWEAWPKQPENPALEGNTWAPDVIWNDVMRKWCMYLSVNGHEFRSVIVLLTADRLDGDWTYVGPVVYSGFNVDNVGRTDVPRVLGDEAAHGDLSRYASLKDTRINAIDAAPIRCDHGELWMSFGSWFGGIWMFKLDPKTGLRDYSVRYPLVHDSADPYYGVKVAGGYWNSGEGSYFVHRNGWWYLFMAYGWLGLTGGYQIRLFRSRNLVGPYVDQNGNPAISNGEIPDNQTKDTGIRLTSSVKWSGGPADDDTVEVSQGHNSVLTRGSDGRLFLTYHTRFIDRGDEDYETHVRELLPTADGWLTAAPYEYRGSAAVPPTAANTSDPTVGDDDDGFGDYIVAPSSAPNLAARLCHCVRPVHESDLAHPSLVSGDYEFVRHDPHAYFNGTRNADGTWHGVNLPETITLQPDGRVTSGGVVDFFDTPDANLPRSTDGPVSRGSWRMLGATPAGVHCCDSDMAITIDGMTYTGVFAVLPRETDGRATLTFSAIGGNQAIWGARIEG

BflsABN43A = molecular target: T2, BflsABN43A (Bifidobacterium longum, UniProt A0A087B7X1); assay: TLC of hydrolysis products; type: biochemical; settings: 0.5% substrate, optimal conditions (pH 5.0, 45 °C)
T2 construct: gene BLSS_1421; 531 aa (56 kDa) printed; 35-residue signal peptide removed (primer deltaS; starts M-SSNAKN by primer), C-terminal His6, E. coli; caution: same WP id also printed for BflsABF43A (710 aa)
T2 sequence (A0A087B7X1 36-531): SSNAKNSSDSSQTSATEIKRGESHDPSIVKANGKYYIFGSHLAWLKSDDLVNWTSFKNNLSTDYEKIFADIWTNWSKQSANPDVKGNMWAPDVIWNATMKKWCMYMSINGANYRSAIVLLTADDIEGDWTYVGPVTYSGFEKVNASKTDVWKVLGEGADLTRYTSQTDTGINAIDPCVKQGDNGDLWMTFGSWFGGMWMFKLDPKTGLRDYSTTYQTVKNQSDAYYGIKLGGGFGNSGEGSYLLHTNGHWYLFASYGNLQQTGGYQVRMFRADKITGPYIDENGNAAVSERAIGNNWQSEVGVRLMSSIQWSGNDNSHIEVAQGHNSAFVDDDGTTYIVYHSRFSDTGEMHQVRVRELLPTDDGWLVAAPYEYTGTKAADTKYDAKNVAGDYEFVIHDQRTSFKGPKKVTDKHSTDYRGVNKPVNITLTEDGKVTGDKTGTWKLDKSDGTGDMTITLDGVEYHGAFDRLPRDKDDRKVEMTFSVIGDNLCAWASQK

For OC[C@@H]1O[C@@H](OC[C@@H]2O[C@@H](OC[C@@H]3O[C@@H](OC[C@@H]4O[C@@H](OC[C@@H]5O[C@@H](OC[C@@H]6OC(O)[C@H](O)[C@H]6O)[C@H](O)[C@H]5O)[C@H](O)[C@H]4O)[C@H](O)[C@H]3O)[C@H](O)[C@H]2O)[C@H](O)[C@H]1O (some centres unmarked) [A6, arabinohexaose], the “TLC of hydrolysis products” value (BflsABN43B) was “both ABNs demonstrated detectable hydrolytic activities to produce A2 and arabinotetraose (A4)” and the “TLC of hydrolysis products” value (BflsABN43A) was “both ABNs demonstrated detectable hydrolytic activities to produce A2 and arabinotetraose (A4)”.
